Laboratory results published in US7166726B2, “Aryl substituted 3,4-dihydroanthracene derivatives having retinoid antagonist or retinoid inverse agonist type biological activity” (Allergan, Inc., priority 1996, dated 2007).

Key:
[1] = target: T1, RARβ (Homo sapiens, UniProt P10826); experiment: Ligand binding assay, RARβ
T1 sequence (P10826 1-455): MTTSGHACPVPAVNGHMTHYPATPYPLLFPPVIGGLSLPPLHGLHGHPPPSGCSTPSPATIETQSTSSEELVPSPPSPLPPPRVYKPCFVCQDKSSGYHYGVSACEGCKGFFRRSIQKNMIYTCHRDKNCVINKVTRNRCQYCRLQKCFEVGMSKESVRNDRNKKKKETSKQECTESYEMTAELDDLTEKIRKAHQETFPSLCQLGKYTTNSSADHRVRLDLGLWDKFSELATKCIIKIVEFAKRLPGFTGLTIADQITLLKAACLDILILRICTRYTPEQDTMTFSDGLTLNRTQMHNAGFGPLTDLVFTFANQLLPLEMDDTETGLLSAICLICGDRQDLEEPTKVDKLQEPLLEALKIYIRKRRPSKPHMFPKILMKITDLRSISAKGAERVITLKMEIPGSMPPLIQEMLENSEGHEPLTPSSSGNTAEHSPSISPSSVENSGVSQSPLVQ
From the text: (§1) A holoreceptor transactivation assay and a ligand binding assay which measure the antagonist/agonist like activity of the compounds of the invention, or their ability to bind to the several retinoid receptor subtypes, respectively, are described in published PCT Application No. WO WO93/11755 (particularly on pages 30–33 and 37–41) published on Jun. 24, 1993, the specification of which is also incorporated herein by reference. A description of the holoreceptor transactivation assay is also provided below.
(§2) CV1 cells (5,000 cells/well) were transfected with an RAR reporter plasmid MTV-TREp-LUC (50 ng) along with one of the RAR expression vectors (10 ng) in an automated 96-well format by the calcium phosphate procedure of Heyman et al. Cell 68, 397–406, (1992). For RXRα and RXRγ transactivation assays, an RXR-responsive reporter plasmid CRBPII-tk-LUC (50 ng) along with the appropriate RXR expression vectors (10 ng) was used substantially as described by Heyman et al. above, and Allegretto et al. J. Biol. Chem. 268, 26625–26633. For RXRβ transactivation assays, an RXR-responsive reporter plasmid CPRE-tk-LUC ([…]) along with RXRβ expression vector ([…]) was used as described in above. These reporters contain DRI elements from human CRBPII and certain DRI elements from promoter, respectively. […]

[2] = system: RARγ-VP-16 chimeric receptor; experiment: Retinoid inverse agonist assay: repression of basal luciferase activity of RARγ-VP-16 chimeric receptor in CV-1 cells; assay type: cell-based; conditions: CV-1 cells cotransfected with RARγ-VP-16, ER-RXRα chimeric receptor and ERE-tk-Luc reporter; read-out: IC50, inhibition of basal luciferase activity
From the text: The activity of retinoid inverse agonists can be tested by the procedure of Klein et al. J. Biol. Chem. 271, 22692–22696 (1996) which is expressly incorporated herein by reference.
In this assay, retinoid inverse agonists are able to repress the basal activity of a RARγ-VP-16 chimeric receptor where the constituitively active domain of the herpes simplex virus (HSV) VP-16 is fused to the N-terminus of RARγ. CV-1 cells are cotransfected with RARγ-VP-16, an ER-RXRα chimeric receptor and an ERE-tk-Luc chimeric reporter gene to produce a basal level of luciferase activity, as shown by Nagpal et al. EMBO J. 12, 2349–2360 (1933) expressly incorporated herein by reference. Retinoid inverse agonists are able to inhibit the basal luciferase activity in these cells in a dose dependent manner and IC50s measured.

[3] = target: T2, RARα (Homo sapiens, UniProt P10276); experiment: Ligand binding assay, RARα
T2 sequence (P10276 1-462): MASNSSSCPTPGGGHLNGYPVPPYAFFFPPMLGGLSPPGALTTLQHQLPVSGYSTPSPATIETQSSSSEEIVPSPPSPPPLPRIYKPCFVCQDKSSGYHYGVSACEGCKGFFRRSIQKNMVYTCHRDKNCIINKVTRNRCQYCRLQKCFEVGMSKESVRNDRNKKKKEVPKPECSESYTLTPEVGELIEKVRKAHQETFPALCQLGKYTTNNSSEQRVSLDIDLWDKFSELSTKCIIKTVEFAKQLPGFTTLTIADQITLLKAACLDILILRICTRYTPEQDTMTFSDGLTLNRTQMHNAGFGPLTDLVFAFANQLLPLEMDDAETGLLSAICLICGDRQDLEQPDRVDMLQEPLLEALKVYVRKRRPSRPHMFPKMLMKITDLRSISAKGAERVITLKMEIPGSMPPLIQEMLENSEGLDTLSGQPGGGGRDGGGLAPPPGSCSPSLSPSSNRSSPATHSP
From the text: as §1, §2

[4] = target: T3, RARγ (Homo sapiens, UniProt P13631); experiment: Ligand binding assay, RARγ; conditions: read-out: Kd TATγ
T3 sequence (P13631 1-454): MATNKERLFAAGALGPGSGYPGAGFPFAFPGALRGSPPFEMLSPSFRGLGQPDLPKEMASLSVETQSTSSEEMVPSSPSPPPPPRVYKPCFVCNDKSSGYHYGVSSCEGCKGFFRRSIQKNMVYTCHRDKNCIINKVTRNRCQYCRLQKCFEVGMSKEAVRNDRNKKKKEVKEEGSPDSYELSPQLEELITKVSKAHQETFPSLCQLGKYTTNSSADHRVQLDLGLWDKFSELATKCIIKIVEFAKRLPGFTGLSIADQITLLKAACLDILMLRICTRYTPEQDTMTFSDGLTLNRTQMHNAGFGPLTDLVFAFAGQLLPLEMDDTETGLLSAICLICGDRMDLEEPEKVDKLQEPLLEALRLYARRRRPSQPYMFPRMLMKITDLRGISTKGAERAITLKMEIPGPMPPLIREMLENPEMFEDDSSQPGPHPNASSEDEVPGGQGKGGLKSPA
From the text: as §1, §2

| Structure (SMILES) | Kd [1] [µM] | IC50 [2] [µM] | Kd [3] [µM] | Kd [4] [µM] |
| --- | --- | --- | --- | --- |
| Cc1ccc(C2=CCC(C)(C)c3cc4cccc(-c5ccc(C(=O)O)cc5)c4cc32)cc1 [Compound 2, 4-[1(Tol-4-yl)-3,4-dihydro-4,4-dimethyl-anthracen-8-yl]-benzoic acid] | 0.004 | 0.001 | 0.013 | 0.007 |
| Cc1ccc(C2=CC(C)(C)Oc3cc4ccc(-c5ccc(C(=O)O)cc5)cc4cc32)s1 [Compound 12, 4-[2,2-Dimethyl-4-(5-methyl-thien-2-yl)-benzo[1,2-g]-chrom-3-en-7-yl]benzoic acid] | 0.012 |  | 0.017 | 0.033 |
